Among the test systems are HOP-92 NSCLC; HT29 colon; SF-539 CNS; K-562 leukemia; MDA-MB-231 breast; TK-10 renal; RXF 393 renal; SR leukemia; LOX IMVI melanoma; MOLT-4 leukemia.
What all share (test): growth of human tumour cells (NCI), 48 h

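Assay format: 96-well plates, 48-hour exposure. The concentration for 50% growth inhibition is given as GI50. TGI: total growth inhibition.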

On to `CN(C)CCC(C#N)(c1ccccc1)c1ccccc1`, for which the TGI in the experiment on HOP-92 NSCLC was 66.6 µM; with HT29 colon, over 100 µM; with SF-539 CNS, over 100 µM; in the experiment with K-562 leukemia, 22.6 µM; in the experiment with MDA-MB-231 breast, over 100 µM; in the experiment on TK-10 renal, over 100 µM. Also, the TGI with RXF 393 renal is over 100 µM.

As to `N#CC(NNC(=O)c1ccccc1O)c1ccccc1O` (stereo unspecified), the TGI in the experiment on HOP-92 NSCLC is over 100 µM; in the experiment on SR leukemia, over 100 µM; in the experiment on HT29 colon it was over 100 µM; in the experiment on SF-539 CNS, 40.9 µM; in the experiment with K-562 leukemia, over 100 µM; with LOX IMVI melanoma, 97.3 µM. Also, the TGI in the experiment with TK-10 renal, in the experiment on RXF 393 renal and in the experiment on MOLT-4 leukemia was over 100 µM each time.

With `O=C(O)OC12CCCCCC1C(=O)C1CCCCC12` (stereo unspecified), the TGI in the experiment on SR leukemia, in the experiment on HT29 colon, in the experiment with K-562 leukemia, in the experiment on LOX IMVI melanoma, in the experiment on TK-10 renal and in the experiment with RXF 393 renal was over 100 µM throughout. Also, the TGI in the experiment with MOLT-4 leukemia is over 100 µM.

For the molecule `COC(=O)C(Cc1ccc2c(c1)OCO2)(NC(=O)c1ccccc1)P(=O)(OC)OC` (stereo unspecified), the TGI in the experiment on HOP-92 NSCLC, in the experiment with SR leukemia, in the experiment with HT29 colon, in the experiment with SF-539 CNS, in the experiment with K-562 leukemia and in the experiment with LOX IMVI melanoma was over 100 µM in each case. Moreover, the TGI with TK-10 renal, in the experiment with RXF 393 renal and with MOLT-4 leukemia was over 100 µM throughout.

For `CCCCCCCC(=O)N1C2CC3CCC2(CS1(=O)=O)C3(C)C` (stereo unspecified), the TGI in the experiment on HOP-92 NSCLC was 68 µM; in the experiment on SR leukemia, 40.8 µM; in the experiment with HT29 colon it was over 10 µM; in the experiment on SF-539 CNS, 41.5 µM; in the experiment on TK-10 renal, over 100 µM; in the experiment with RXF 393 renal, 31.8 µM. The molecule further came in with a TGI in the experiment with MOLT-4 leukemia of 35.1 µM.

Turning to `CCOC(=O)c1nc2ccccc2nc1Oc1ccc(F)cc1`, the TGI in the experiment on HOP-92 NSCLC, with HT29 colon, in the experiment with SF-539 CNS, in the experiment with K-562 leukemia, in the experiment with LOX IMVI melanoma and with MDA-MB-231 breast was over 100 µM in each case. The TGI in the experiment on TK-10 renal and with RXF 393 renal was over 100 µM throughout.

With `CC(=O)OCCn1c(Cc2ccc(Cl)cc2)nn(C(C)=O)c1=O`, the TGI with HOP-92 NSCLC, in the experiment on HT29 colon, in the experiment with SF-539 CNS, in the experiment on K-562 leukemia, in the experiment on LOX IMVI melanoma and in the experiment with MDA-MB-231 breast was over 100 µM throughout. For the same molecule, the TGI in the experiment on TK-10 renal and with MOLT-4 leukemia was over 100 µM each time.

Regarding `COc1ccc(N(c2ccc(C#N)cc2)c2ccc(C#N)cc2)cc1`, the TGI in the experiment on HOP-92 NSCLC, in the experiment on HT29 colon, in the experiment with SF-539 CNS, in the experiment on LOX IMVI melanoma, with MDA-MB-231 breast and in the experiment on TK-10 renal was over 100 µM each time. In the experiment with MOLT-4 leukemia, this molecule registered a TGI of over 100 µM.

As to `CCCCCCCCCCCCOC(=N)N1CCOCC1`, the TGI turned out to be 13.8 µM in the experiment with HOP-92 NSCLC; 4.53 µM in the experiment with SR leukemia; 4.11 µM in the experiment on HT29 colon; 19.1 µM with SF-539 CNS; 7.47 µM with K-562 leukemia; 34.4 µM in the experiment with LOX IMVI melanoma. For the same molecule, the TGI was determined as 31.6 µM in the experiment with TK-10 renal, 25.9 µM in the experiment on RXF 393 renal and 6.89 µM in the experiment on MOLT-4 leukemia.

With `COC(=O)C#CC1(O)C=CC(=O)C=C1`, the TGI in the experiment with HOP-92 NSCLC is 2.29 µM; in the experiment on SR leukemia, 15.2 µM; in the experiment with HT29 colon, 13.5 µM; in the experiment on SF-539 CNS, over 35.1 µM; with LOX IMVI melanoma, 1.9 µM; with TK-10 renal, 5.22 µM. Moreover, the TGI in the experiment on RXF 393 renal was 3.76 µM; in the experiment on MOLT-4 leukemia it was 0.0794 µM.

Consider `O=[N+]([O-])c1cccc(-c2ccc([C@H]3CC(c4ccc(Cl)cc4)=NN3)o2)c1`, for which the TGI with HOP-92 NSCLC amounted to 67.6 µM; with SR leukemia, 32.7 µM; with HT29 colon, 56.9 µM; in the experiment on K-562 leukemia it was 55 µM; in the experiment with TK-10 renal it was 42.8 µM; in the experiment on RXF 393 renal, 35.2 µM. For the same molecule, in the experiment with MOLT-4 leukemia, the TGI came out at 29.1 µM.

In the case of `CSc1cnc2ccccc2c1Sc1cn(C)c2ccccc2c1=O`, the TGI in the experiment on HOP-92 NSCLC is 67 µM; in the experiment with SR leukemia it was over 100 µM; in the experiment on HT29 colon it was over 100 µM; in the experiment with SF-539 CNS, over 100 µM; in the experiment with K-562 leukemia, over 100 µM; in the experiment on LOX IMVI melanoma, over 100 µM. Besides, the TGI with TK-10 renal, in the experiment on RXF 393 renal and in the experiment on MOLT-4 leukemia was over 100 µM in each case.

`CC(C)c1cc(C(C)C)c(S(=O)(=O)N/N=C2\CC3CCC2(C)C3(C)C)c(C(C)C)c1` (stereo unspecified): the TGI is 43.8 µM with HT29 colon; over 100 µM with K-562 leukemia; over 100 µM in the experiment on MDA-MB-231 breast; over 100 µM in the experiment on TK-10 renal; 58.5 µM with RXF 393 renal; 40 µM in the experiment on MOLT-4 leukemia.

Take `C/C(=C/C(=O)N(C)c1ccccc1Cl)O[Si](C(C)C)(C(C)C)C(C)C`: the TGI in the experiment with HOP-92 NSCLC was 31.1 µM; with HT29 colon, 34 µM; in the experiment on SF-539 CNS, 38.3 µM; in the experiment with LOX IMVI melanoma, 33.2 µM; in the experiment with MDA-MB-231 breast it was 50.1 µM; with TK-10 renal, over 100 µM. The TGI with RXF 393 renal is 34.5 µM; in the experiment with MOLT-4 leukemia, over 100 µM.

Consider `O=c1cc(O)c1=O`, for which the TGI in the experiment with HOP-92 NSCLC, with SR leukemia, in the experiment on HT29 colon, in the experiment with SF-539 CNS, with K-562 leukemia and in the experiment on LOX IMVI melanoma was over 100 µM throughout. The TGI in the experiment with TK-10 renal and with MOLT-4 leukemia was over 100 µM in each case.

As for `O[C@@H]1CCCCN1Cc1cc2cc3c(cc2c2cc(OCc4ccccc4)ccc12)OCO3`, the GI50 in the experiment on HOP-92 NSCLC is 1.35 µM; in the experiment on HT29 colon, 1.03 µM; with SF-539 CNS, 1.55 µM; in the experiment with K-562 leukemia, 1.45 µM; in the experiment on MDA-MB-231 breast, 1.75 µM; in the experiment with TK-10 renal, 2.08 µM. In addition, the GI50 with MOLT-4 leukemia is 0.666 µM. The TGI with HOP-92 NSCLC was 2.93 µM; in the experiment on HT29 colon, 2.45 µM; in the experiment with SF-539 CNS, 2.96 µM; in the experiment on K-562 leukemia, 4.14 µM; in the experiment with MDA-MB-231 breast, 3.33 µM; with TK-10 renal, 4.05 µM. Besides, the TGI in the experiment on MOLT-4 leukemia was found to be 8.05 µM.

As for `COC(=O)[C@@H](N1C(=O)c2ccccc2C1=O)C1(C)CC(Cl)=NO1` (stereo partly specified), the TGI in the experiment with HT29 colon is over 100 µM; in the experiment on K-562 leukemia, over 100 µM; in the experiment on MDA-MB-231 breast it was 60.3 µM; with TK-10 renal, 82.4 µM; with RXF 393 renal it was over 100 µM.

Consider `COc1cc(N(CCC#N)CCC#N)ccc1/C(N=Nc1cccc([N+](=O)[O-])c1)=N\NC(=O)c1ccc(C)cc1`, for which the TGI in the experiment on HOP-92 NSCLC, in the experiment with HT29 colon, in the experiment with K-562 leukemia, in the experiment with LOX IMVI melanoma, with MDA-MB-231 breast and with TK-10 renal was over 100 µM in each case. For the same molecule, the TGI in the experiment with RXF 393 renal and with MOLT-4 leukemia was over 100 µM throughout.

As to `Cc1c(CNc2ccc(Cl)c(Cl)c2Cl)cnc2nc(N)nc(N)c12`, the TGI with HOP-92 NSCLC is over 62.8 µM; in the experiment with SR leukemia it was over 57.9 µM; with HT29 colon, over 53.9 µM; in the experiment on SF-539 CNS, 12.2 µM; in the experiment with K-562 leukemia, 5.14 µM; with LOX IMVI melanoma it was 13.6 µM. Further, the TGI is 48.3 µM in the experiment on TK-10 renal, over 55.5 µM in the experiment on RXF 393 renal and 17.6 µM in the experiment with MOLT-4 leukemia.

As to `CC(C)OP(=O)(OC(C)C)C(=Nc1ccc(N=C(NNc2ccc([N+](=O)[O-])cc2)P(=O)(OC(C)C)OC(C)C)cc1)NNc1ccc([N+](=O)[O-])cc1`, the TGI with HOP-92 NSCLC, in the experiment with SR leukemia, with SF-539 CNS, with K-562 leukemia, in the experiment with LOX IMVI melanoma and in the experiment on TK-10 renal was over 100 µM in each case. For the same molecule, the TGI with MOLT-4 leukemia is over 100 µM.

`C/C(=C\COP(=O)(O)CP(=O)(O)O)CC/C=C(\C)CNc1ccccc1`: the TGI in the experiment with HT29 colon, with SF-539 CNS, in the experiment on K-562 leukemia, in the experiment with LOX IMVI melanoma, in the experiment with MDA-MB-231 breast and with TK-10 renal was over 100 µM each time. For the same molecule, the TGI in the experiment on RXF 393 renal and in the experiment with MOLT-4 leukemia was over 100 µM throughout.

For the molecule `CCCCc1c2c([n+]([O-])c3c1CCCC3)CCCC2`, the TGI with SR leukemia, in the experiment with HT29 colon, with SF-539 CNS, with K-562 leukemia, with LOX IMVI melanoma and in the experiment on TK-10 renal was over 100 µM in each case. In the experiment with MOLT-4 leukemia, this molecule registered a TGI of over 100 µM.

Turning to `N#CC(C#N)=CNC(=S)Nc1ccc(S(=O)(=O)Nc2nccs2)cc1`, the TGI in the experiment on HOP-92 NSCLC, with HT29 colon, in the experiment with SF-539 CNS, with LOX IMVI melanoma, in the experiment on MDA-MB-231 breast and with TK-10 renal was over 100 µM throughout. Also, the TGI in the experiment on RXF 393 renal and in the experiment on MOLT-4 leukemia was over 100 µM in each case.

With `CC1CC(=O)C(CC(=O)O)[C@H]1C(C(=O)C(=O)Nc1cc(Cl)ccc1Cl)[N+](=O)[O-]` (stereo partly specified), the TGI with HOP-92 NSCLC, with SR leukemia, in the experiment on HT29 colon, in the experiment with SF-539 CNS, in the experiment on K-562 leukemia and with LOX IMVI melanoma was over 100 µM each time. Moreover, the TGI in the experiment on TK-10 renal and with RXF 393 renal was over 100 µM throughout.

For the origin of these results see PubChem BioAssay (NCI).
